Consider 26 molecules from US20090239845A1, “PYRAZOLE COMPOUNDS AS PROSTAGLANDIN RECEPTORS LIGANDS” (priority 2005, published 2009).

Counter-ions that a name gives are not always drawn.

The experiment deals with T1, human EP1 receptor (Homo sapiens, UniProt P34995).
T1 construct: expressed in transfected cells; host or cells: CHO-K1
T1 sequence (P34995 1-402): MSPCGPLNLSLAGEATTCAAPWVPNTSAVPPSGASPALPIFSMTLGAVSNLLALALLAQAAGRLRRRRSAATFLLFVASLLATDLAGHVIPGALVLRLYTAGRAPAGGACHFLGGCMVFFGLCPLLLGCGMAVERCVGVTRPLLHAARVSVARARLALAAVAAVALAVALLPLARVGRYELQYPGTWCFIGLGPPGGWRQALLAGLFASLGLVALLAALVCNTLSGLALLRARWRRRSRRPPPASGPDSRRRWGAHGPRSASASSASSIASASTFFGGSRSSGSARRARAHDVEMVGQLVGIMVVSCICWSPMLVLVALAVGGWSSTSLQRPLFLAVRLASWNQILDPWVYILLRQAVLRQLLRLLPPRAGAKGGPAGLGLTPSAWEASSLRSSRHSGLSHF
Kind of experiment: human EP1 calcium mobilisation assay. As to conditions: negative logarithm10 of the antagonist dissociation constant; CHO-K1 cells, PGE2; free bases or sodium salts; averages of a number of experiments; read-out: functional pKi value (converted). The format is cell-based. How it is done:
Briefly, the antagonist properties of compounds are assessed by their ability to inhibit the mobilisation of intracellular calcium ([Ca^2+]i) in response to activation of EP1 or EP3 receptors by the natural agonist hormone prostaglandin E2 (PGE2). Increasing concentrations of antagonist reduce the amount of calcium that a given concentration of PGE2 can mobilise. The net effect is to displace the PGE2 concentration-effect curve to higher concentrations of PGE2. The amount of calcium produced is assessed using a calcium-sensitive fluorescent dye such as Fluo-4, AM and a suitable instrument such as a Fluorimetric Imaging Plate Reader (FLIPR). Increasing amounts of [Ca^2+]i produced by receptor activation increase the amount of fluorescence produced by the dye and give rise to an increasing signal. The signal may be detected using the FLIPR instrument and the data generated may be analysed with suitable curve-fitting software.
The human EP1 or EP3 calcium mobilisation assay (hereafter referred to as ‘the calcium assay’) utilises Chinese hamster ovary-K1 (CHO-K1) cells into which a stable (pCIN; BioTechniques 20 (1996): 102-110) vector containing either EP1 or EP3 cDNA has previously been transfected. Cells are cultured in suitable flasks containing culture medium such as DMEM:F-12 supplemented with 10% v/v foetal calf serum, 2 mM L-glutamine, 0.25 mg/ml geneticin, 100 μM flurbiprofen and 10 μg/ml puromycin.
For assay, cells are harvested using a proprietary reagent that dislodges cells such as Versene. Cells are re-suspended in a suitable quantity of fresh culture media for introduction into a 384-well plate. Following incubation for 24 hours at 37° C. the culture media is replaced with a medium containing Fluo-4 and the detergent pluronic acid, and a further incubation takes place. Concentrations of compounds are then added to the plate in order to construct concentration-effect curves. This may be performed on the FLIPR in order to assess the agonist properties of the compounds. Concentrations of PGE2 are then added to the plate in order to assess the antagonist properties of the compounds.
The data so generated may be analysed by means of a computerised curve-fitting routine. The concentration of compound that elicits a half-maximal inhibition of the calcium mobilisation induced by PGE2 (plC50) may then be estimated.
On the technique in general: Calcium flux is commonly read through the fluorescence of an indicator in the cells.

For `Cc1cc(NC(=O)Cc2cccnc2)nn1Cc1cc(Cl)ccc1OCc1ccccc1` [Example 148, N-[1-({5-Chloro-2-[(phenylmethyl)oxy]phenyl}methyl)-5-methyl-1H-pyrazol-3-yl]-2-(3-pyridinyl)-acetamide], the Ki is over 1000 nM.
The figure for `Cc1cc(-c2nc3cc(F)c(F)cc3[nH]2)nn1Cc1cc(Cl)ccc1OCC(C)C` [Example 376, 2-[1-({5-Chloro-2-[(2-methylpropyl)oxy]phenyl}methyl)-5-methyl-1H-pyrazol-3-yl]-5,6-difluoro-1H-benzimidazole] is over 1000 nM; for `Cc1cc(NC(=O)Cc2ccccc2)nn1Cc1cc(Cl)ccc1OCc1ccccc1F` [Example 120, N-{1-[(5-Chloro-2-{[(2-fluorophenyl)methyl]oxy}phenyl)methyl]-5-methyl-1H-pyrazol-3-yl}-2-phenylacetamide] it is over 1000 nM; for `Cc1cc(NC(=O)Cc2ccccc2)nn1Cc1cc(Cl)ccc1OCc1ccc(F)cc1F` [Example 122, N-{1-[(5-Chloro-2-{[(2,4-difluorophenyl)methyl]oxy}phenyl)methyl]-5-methyl-1H-pyrazol-3-yl}-2-phenylacetamide] it is over 1000 nM.
For `Cc1cc(-c2nc3ccccc3[nH]2)nn1Cc1cc(Cl)ccc1OCc1ccccc1` [Example 385, 2-[1-({5-Chloro-2-[(phenylmethyl)oxy]phenyl}methyl)-5-methyl-1H-pyrazol-3-yl]-1H-benzimidazole] the value was over 1000 nM.
The figure for `Cc1cc(C(=O)Nc2ccc(C#N)cc2)nn1Cc1cc(Cl)ccc1OCc1ccccc1` [Example 306, 1-({5-Chloro-2-[(phenylmethyl)oxy]phenyl}methyl)-N-(4-cyanophenyl)-5-methyl-1H-pyrazole-3-carboxamide] is over 1000 nM.
With `CNC(=O)c1cc(C)n(Cc2cc(Cl)ccc2OCc2ccccc2)n1` [Example 296, 1-({5-Chloro-2-[(phenylmethyl)oxy]phenyl}methyl)-N,5-dimethyl-1H-pyrazole-3-carboxamide], the Ki was over 1000 nM.
The figure for `Cc1cc(-c2cnc(-c3ccncc3)[nH]2)nn1Cc1cc(Cl)ccc1OCc1ccccc1` [Example 483, 4-{4-[1-({5-Chloro-2-[(phenylmethyl)oxy]phenyl}methyl)-5-methyl-1H-pyrazol-3-yl]-1H-imidazol-2-yl}pyridine hydrochloride] is over 1000 nM.
For `Cc1cc(C(=O)NCc2ccccn2)nn1Cc1cc(Cl)ccc1OCc1cc(F)c(F)cc1F` [Example 338, 1-[(5-Chloro-2-{[(2,4,5-trifluorophenyl)methyl]oxy}phe-nyl)methyl]-5-methyl-N-(2-pyridinylmethyl)-1H-pyrazole-3-carboxamide] the value was over 1000 nM; for `Cc1cc(NC(=O)Cc2ccccc2)nn1Cc1cc(Cl)ccc1OCc1ccc(F)cc1` [Example 121, N-{1-[(5-Chloro-2-{[(4-fluorophenyl)methyl]oxy}phenyl)methyl]-5-methyl-1H-pyrazol-3-yl}-2-phenylacetamide], over 1000 nM.
The figure for `Cc1cc(NC(=O)c2ccccn2)nn1Cc1cc(Cl)ccc1OCc1ccccc1` [Example 139, N-[1-({5-Chloro-2-[(phenylmethyl)oxy]phenyl}methyl)-5-methyl-1H-pyrazol-3-yl]-2-pyridinecarboxamide] is over 1000 nM; for `Cc1cc(-c2cnc(-c3cnccn3)[nH]2)nn1Cc1cc(Cl)ccc1OCc1ccccc1` [Example 482, 2-{4-[1-({5-chloro-2-[(phenylmethyl)oxy]phenyl}methyl)-5-methyl-1H-pyrazol-3-yl]-1H-imidazol-2-yl}pyrazine] it is over 1000 nM; for `CC(=O)Nc1cc(C)n(Cc2cc(Cl)ccc2OCc2ccccc2)n1` [Example 104, N-[1-({5-Chloro-2-[(phenylmethyl)oxy]phenyl}methyl)-5-methyl-1H-pyrazol-3-yl]acetamide] it is over 1000 nM.
Consider `CNCc1ccc(NC(=O)c2cc(C)n(Cc3cc(Cl)ccc3OCC(C)C)n2)c(OC)c1` [Example 412, 1-({5-Chloro-2-[(2-methylpropyl)oxy]phenyl}methyl)-5-methyl-N-[4-[(methylamino)methyl]-2-(methyloxy)phenyl]-1H-pyrazole-3-carboxamide hydrochloride], for which the Ki is over 1000 nM.
For the molecule `Cc1cc(C(=O)NCc2ccccc2)nn1Cc1cc(Cl)ccc1OCc1ccccc1` [Example 292, 1-({5-Chloro-2-[(phenylmethyl)oxy]phenyl}methyl)-5-methyl-N-(phenylmethyl)-1H-pyrazol-3-carboxamide], the Ki is over 1000 nM.
Take `Cc1cc(C(=O)Nc2ccccc2Cl)nn1Cc1cc(Cl)ccc1OCc1ccccc1` [Example 300, N-(2-Chlorophenyl)-1-({5-chloro-2-[(phenylmethyl)oxy]phenyl}methyl)-5-methyl-1H-pyrazole-3-carboxamide]: the Ki was over 1000 nM.
As for `Cc1cc(N2CCN(Cc3ccc(Cl)cc3)CC2=O)nn1Cc1cc(Cl)ccc1OCC1CCCCO1` (centres unmarked) [Example 284, 4-[(4-Chlorophenyl)methyl]-1-[1-({5-chloro-2-[(tetrahydro-2H-pyran-2-ylmethyl)oxy]phenyl}methyl)-5-methyl-1H-pyrazol-3-yl]-2-piperazinone], the Ki is over 1000 nM.
With `Cc1cc(C(=O)NCc2ccccn2)nn1Cc1cc(Cl)ccc1OCc1ccc(Cl)cc1F` [Example 340, 1-[(5-Chloro-2-{[(4-chloro-2-fluorophenyl)methyl]oxy}phe-nyl)methyl]-5-methyl-N-(2-pyridinylmethyl)-1H-pyrazole-3-carboxamide], the Ki is over 1000 nM.
On to `Cc1cc(OC(=O)NCc2cccc(NC(=O)OC(C)(C)C)c2)nn1Cc1cc(Cl)ccc1OCc1ccccc1` [Example 60, 1-({5-Chloro-2-[(phenylmethyl)oxy]phenyl}methyl)-5-methyl-1H-pyrazol-3-yl {[3-({[(1,1-dimethylethyl)oxy]carbonyl}amino)phenyl]methyl}carbamate], for which the Ki was over 1000 nM.
For `CCOC(=O)Nc1cc(C)n(Cc2cc(Cl)ccc2OCc2ccccc2)n1` [Example 66, Ethyl [1-({5-chloro-2-[(phenylmethyl)oxy]phenyl}methyl)-5-methyl-1H-pyrazol-3-yl]carbamate] the value was over 1000 nM; for `Cc1cc(NC(=O)c2ccc(CNCC(C)C)c(F)c2)nn1Cc1cc(Cl)ccc1OCC(C)C` [Example 438, N-[1-({5-chloro-2-[(2-methylpropyl)oxy]phenyl}methyl)-5-methyl-1H-pyrazol-3-yl]-3-fluoro-4-{[(2-methylpropyl)amino]methyl}benzamide hydrochloride], over 1000 nM.
For `Cc1cc(C(=O)NCc2ccccn2)nn1Cc1cc(Cl)ccc1OCc1ccc(F)c(F)c1F` [Example 339, 1-[(5-Chloro-2-{[(2,3,4-trifluoro-phenyl)methyl]oxy}phe-nyl)methyl]-5-methyl-N-(2-pyridinylmethyl)-1H-pyrazole-3-carboxamide] the value was over 1000 nM; for `Cc1cc(OC(=O)NCc2ccc(NC(=O)OC(C)(C)C)cc2)nn1Cc1cc(Cl)ccc1OCc1ccccc1` [Example 56, 1-({5-Chloro-2-[(phenylmethyl)oxy]phenyl}methyl)-5-methyl-1H-pyrazol-3-yl {[4-({[(1,1-dimethylethyl)oxy]carbonyl}amino)phenyl]methyl}carbamate], over 1000 nM; for `Cc1cc(NC(=O)Cc2ccccc2)nn1Cc1cc(Cl)ccc1OCc1ccccc1Cl` [Example 129, N-{1-[(5-Chloro-2-{[(2-chlorophenyl)methyl]oxy}phenyl)methyl]-5-methyl-1H-pyrazol-3-yl}-2-phenylacetamide], over 1000 nM.
The figure for `Cc1cc(-c2cnc(N3CCOCC3)[nH]2)nn1Cc1cc(Cl)ccc1OCc1ccccc1` [Example 485, 4-{4-[1-({5-Chloro-2-[(phenylmethyl)oxy]phenyl}methyl)-5-methyl-1H-pyrazol-3-yl]-1H-imidazol-2-yl}morpholine dihydrochloride] is over 1000 nM; for `Cc1cc(NC(=O)c2ccco2)nn1Cc1cc(Cl)ccc1OCc1ccccc1` [Example 140, N-[1-({5-Chloro-2-[(phenylmethyl)oxy]phenyl}methyl)-5-methyl-1H-pyrazol-3-yl]-2-furancarboxamide] it is over 1000 nM.
